The record followed here is PubChem BioAssay AID256 (DTP/NCI, 2004).

The test system of the assay is CD2F1 mice, L1210 leukemia ip, survival T/C. As to the kind of experiment: NCI In Vivo Anticancer Drug Screen. Data for tumor model L1210 Leukemia (intraperitoneal) in CD2F1 (CDF1) mice. The conditions noted are these: higher = longer survival. The procedure, abridged: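 Ratio T/C, where T is the treated-group value and C the vehicle-dosed control value, from mice implanted with a transplantable tumor.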

[1] abbreviates: endpoint: mean survival time, dose: 100.0 mg/kg/injection, schedule: Q01DX001 (ip), vehicle: saline with Tween-80.
Where [2] appears, read: endpoint: mean survival time, dose: 200.0 mg/kg/injection, schedule: Q01DX001 (ip), vehicle: saline with Tween-80.
Setting [3] is: endpoint: mean survival time, dose: 400.0 mg/kg/injection, schedule: Q01DX001 (ip), vehicle: saline with Tween-80.
Where [4] appears, read: endpoint: mean survival time, dose: 100.0 mg/kg/injection, schedule: Q04DX002 (ip), vehicle: saline with Tween-80.
Setting [5] is: endpoint: mean survival time, dose: 100.0 mg/kg/injection, schedule: Q04DX003 (ip), vehicle: saline with Tween-80.
The mark [6] stands for this setting: endpoint: mean survival time, dose: 200.0 mg/kg/injection, schedule: Q04DX003 (ip), vehicle: saline with Tween-80.
Where [7] appears, read: endpoint: mean survival time, dose: 400.0 mg/kg/injection, schedule: Q04DX003 (ip), vehicle: saline with Tween-80.
Where [8] appears, read: endpoint: mean survival time, dose: 100.0 mg/kg/injection, schedule: Q01DX009 (ip), vehicle: saline with Tween-80.
Where [9] appears, read: endpoint: mean survival time, dose: 200.0 mg/kg/injection, schedule: Q01DX009 (ip), vehicle: saline with Tween-80.
[10] abbreviates: endpoint: mean survival time, dose: 400.0 mg/kg/injection, schedule: Q01DX009 (ip), vehicle: saline with Tween-80.

Each structure is given as a SMILES string. Where “and” joins values, the source holds several entries; their conditions need not be identical. Equal entries are not always repeated. Inconclusive results and toxic doses are left out.

Regarding `CCCCOC(=O)c1ccc(OC(=O)Nc2ccc(C)cc2[N+](=O)[O-])cc1`, the T/C is, setting by setting: (endpoint: mean survival time, dose: 25.0 mg/kg/injection, schedule: Q01DX009 (ip), vehicle: saline + alcohol) 102 % of control; (endpoint: mean survival time, dose: 50.0 mg/kg/injection, schedule: Q01DX001 (ip), vehicle: saline with Tween-80) 109 % of control; (endpoint: mean survival time, dose: 50.0 mg/kg/injection, schedule: Q01DX009 (ip), vehicle: saline + alcohol) 108 % of control; under setting [1], 113 % of control; (endpoint: mean survival time, dose: 100.0 mg/kg/injection, schedule: Q01DX009 (ip), vehicle: saline + alcohol) 103 % of control; under setting [2], 109 % of control. Further, the T/C (endpoint: mean survival time, dose: 200.0 mg/kg/injection, schedule: Q01DX009 (ip), vehicle: saline + alcohol) was 101 % of control and the T/C under setting [3] was 107 % of control.

Regarding `CC/C=C(\C)CC(C)O` (stereo not given), the T/C runs as follows: (endpoint: mean survival time, dose: 25.0 mg/kg/injection, schedule: Q04DX002 (ip), vehicle: saline with Tween-80) 93 % of control; (endpoint: mean survival time, dose: 50.0 mg/kg/injection, schedule: Q04DX002 (ip), vehicle: saline with Tween-80) 89 % of control; under setting [4], 89 % of control.

In the case of `CO/N=C/[C@@H](CO)O[C@H](/C=N/OC)n1cnc2c(N)ncnc21`, the T/C reads like this: (endpoint: median survival time, dose: 12.5 mg/kg/injection, schedule: Q01DX005 (ip), vehicle: distilled water + Tween-80) 97 % of control; (endpoint: median survival time, dose: 25.0 mg/kg/injection, schedule: Q01DX005 (ip), vehicle: distilled water + Tween-80) 100 % of control; (endpoint: median survival time, dose: 50.0 mg/kg/injection, schedule: Q01DX005 (ip), vehicle: distilled water + Tween-80) 97 % of control; (endpoint: median survival time, dose: 100.0 mg/kg/injection, schedule: Q01DX005 (ip), vehicle: distilled water + Tween-80) 96 % of control; (endpoint: median survival time, dose: 200.0 mg/kg/injection, schedule: Q01DX005 (ip), vehicle: distilled water + Tween-80) 100 % of control.

In the case of `N=c1c(C(=O)OCc2ccccc2)ncc(CCl)n1O`, the T/C (endpoint: median survival time, dose: 25.0 mg/kg/injection, schedule: Q01DX009 (ip), vehicle: saline with Tween-80) is 100 % of control; the T/C (endpoint: median survival time, dose: 50.0 mg/kg/injection, schedule: Q01DX009 (ip), vehicle: saline with Tween-80) was 101 % of control and 102 % of control; the T/C (endpoint: median survival time, dose: 100.0 mg/kg/injection, schedule: Q01DX009 (ip), vehicle: saline with Tween-80) was 97 % of control and 109 % of control; the T/C (endpoint: median survival time, dose: 200.0 mg/kg/injection, schedule: Q01DX009 (ip), vehicle: saline with Tween-80) is 93 % of control and 97 % of control; the T/C (endpoint: median survival time, dose: 400.0 mg/kg/injection, schedule: Q01DX009 (ip), vehicle: saline with Tween-80) is 99 % of control and 100 % of control.

For `N#CCC(=O)NN`, the T/C reads like this: (endpoint: mean survival time, dose: 100.0 mg/kg/injection, schedule: Q04DX003 (ip), vehicle: saline) 103 % of control; (endpoint: mean survival time, dose: 200.0 mg/kg/injection, schedule: Q04DX003 (ip), vehicle: saline) 108 % of control.

`CCCCCCCCCCCCCCCCS(=O)(=O)CCO`: the T/C is, setting by setting: under setting [5], 90 % of control; under setting [6], 88 % of control; under setting [7], 90 % of control.

Regarding `CCCC/C=C\C(=O)O`, the T/C was 102 % of control (endpoint: mean survival time, dose: 50.0 mg/kg/injection, schedule: Q01DX009 (ip), vehicle: saline with Tween-80); 102 % of control under setting [8]; 98 % of control under setting [9].

As for `O=C(NC(=S)Nc1cccc2c(O)cccc12)c1cccc(Br)c1`, the T/C is 88 % of control and 91 % of control under setting [1]; 86 % of control and 98 % of control under setting [8]; 90 % of control and 91 % of control under setting [4]; 94 % of control under setting [5]; 88 % of control and 92 % of control under setting [2]; 103 % of control and 108 % of control under setting [9]. Also, the T/C is 91 % of control and 94 % of control (endpoint: mean survival time, dose: 200.0 mg/kg/injection, schedule: Q04DX002 (ip), vehicle: saline with Tween-80); 94 % of control under setting [6]; 88 % of control and 90 % of control under setting [3]; 116 % of control and 108 % of control under setting [10]; 90 % of control and 95 % of control (endpoint: mean survival time, dose: 400.0 mg/kg/injection, schedule: Q04DX002 (ip), vehicle: saline with Tween-80); 94 % of control under setting [7].

For `Cn1c(=O)cc(C=Nc2ccc(O)cc2)c2ccccc21`, the T/C was 94 % of control under setting [8], 90 % of control under setting [9] and 97 % of control under setting [10].

For the compound `Nc1ccc(C(=O)CCCN2CCCCC2)cc1`, the T/C (endpoint: mean survival time, dose: 12.5 mg/kg/injection, schedule: Q04DX003 (ip), vehicle: saline) was 107 % of control; the T/C (endpoint: mean survival time, dose: 25.0 mg/kg/injection, schedule: Q04DX003 (ip), vehicle: saline) is 95 % of control; the T/C (endpoint: mean survival time, dose: 50.0 mg/kg/injection, schedule: Q04DX003 (ip), vehicle: saline) was 107 % of control.

As for `O=[N+]([O-])c1cc(S(=O)(=O)c2ccc(N3CCCC3)c([N+](=O)[O-])c2)ccc1N1CCCC1`, the T/C by setting is: under setting [8], 102 % of control; under setting [9], 95 % of control; under setting [10], 104 % of control.

`NC(=O)C1C(c2ccccc2)=C(c2ccccc2)c2ccccc21` (stereo not given): the T/C was 87 % of control under setting [1], 87 % of control under setting [2] and 87 % of control under setting [3].

For the compound `CC1C=NNC1=O` (stereo not given), the T/C (endpoint: mean survival time, dose: 8.0 mg/kg/injection, schedule: Q03HX016 (ip), vehicle: saline) is 101 % of control; the T/C (endpoint: mean survival time, dose: 8.0 mg/kg/injection, schedule: Q03HX024 (ip), vehicle: saline) is 96 % of control; the T/C (endpoint: mean survival time, dose: 12.5 mg/kg/injection, schedule: Q01DX009 (ip), vehicle: Klucel (hydroxypropylcellulose) (HPC)) was 97 % of control; the T/C (endpoint: mean survival time, dose: 16.0 mg/kg/injection, schedule: Q03HX016 (ip), vehicle: saline) was 98 % of control; the T/C (endpoint: mean survival time, dose: 16.0 mg/kg/injection, schedule: Q03HX024 (ip), vehicle: saline) is 100 % of control; the T/C (endpoint: mean survival time, dose: 25.0 mg/kg/injection, schedule: Q01DX009 (ip), vehicle: Klucel (hydroxypropylcellulose) (HPC)) was 110 % of control. Moreover, the T/C (endpoint: mean survival time, dose: 32.0 mg/kg/injection, schedule: Q03HX016 (ip), vehicle: saline) was 112 % of control; the T/C (endpoint: mean survival time, dose: 32.0 mg/kg/injection, schedule: Q03HX024 (ip), vehicle: saline) is 116 % of control; the T/C (endpoint: mean survival time, dose: 50.0 mg/kg/injection, schedule: Q01DX009 (ip), vehicle: Klucel (hydroxypropylcellulose) (HPC)) is 111 % of control; the T/C (endpoint: mean survival time, dose: 64.0 mg/kg/injection, schedule: Q01DX009 (ip), vehicle: saline) was 109 % of control; the T/C (endpoint: mean survival time, dose: 64.0 mg/kg/injection, schedule: Q03HX016 (ip), vehicle: saline) was 110 % of control; the T/C (endpoint: mean survival time, dose: 64.0 mg/kg/injection, schedule: Q03HX024 (ip), vehicle: saline) was 108 % of control. Moreover, the T/C (endpoint: mean survival time, dose: 64.0 mg/kg/injection, schedule: Q04DX003 (ip), vehicle: saline) was 103 % of control; the T/C (endpoint: mean survival time, dose: 64.0 mg/kg/injection, schedule: Q08DX002 (ip), vehicle: saline) was 102 % of control; the T/C (endpoint: mean survival time, dose: 100.0 mg/kg/injection, schedule: Q01DX009 (ip), vehicle: saline) is 117 % of control; the T/C (endpoint: mean survival time, dose: 128.0 mg/kg/injection, schedule: Q01DX009 (ip), vehicle: saline) was 118 % of control; the T/C (endpoint: mean survival time, dose: 128.0 mg/kg/injection, schedule: Q04DX003 (ip), vehicle: saline) was 103 % of control; the T/C (endpoint: mean survival time, dose: 128.0 mg/kg/injection, schedule: Q08DX002 (ip), vehicle: saline) is 101 % of control. Also, the T/C (endpoint: mean survival time, dose: 200.0 mg/kg/injection, schedule: Q01DX009 (ip), vehicle: saline) was 123 % of control; the T/C (endpoint: mean survival time, dose: 256.0 mg/kg/injection, schedule: Q04DX003 (ip), vehicle: saline) was 110 % of control; the T/C (endpoint: mean survival time, dose: 256.0 mg/kg/injection, schedule: Q08DX002 (ip), vehicle: saline) is 102 % of control; the T/C (endpoint: mean survival time, dose: 400.0 mg/kg/injection, schedule: Q01DX009 (ip), vehicle: Klucel (hydroxypropylcellulose) (HPC)) is 155 % of control; the T/C (endpoint: mean survival time, dose: 512.0 mg/kg/injection, schedule: Q04DX003 (ip), vehicle: saline) was 103 % of control; the T/C (endpoint: mean survival time, dose: 512.0 mg/kg/injection, schedule: Q08DX002 (ip), vehicle: saline) is 106 % of control.

Regarding `NCCSC1(O)C(=O)c2ccccc2-c2ccccc21` (stereo not given), the T/C by setting is: (endpoint: mean survival time, dose: 37.5 mg/kg/injection, schedule: Q01DX009 (ip), vehicle: saline) 100 % of control; (endpoint: mean survival time, dose: 75.0 mg/kg/injection, schedule: Q01DX009 (ip), vehicle: saline) 101 % of control; (endpoint: mean survival time, dose: 150.0 mg/kg/injection, schedule: Q01DX009 (ip), vehicle: saline) 91 % of control.
